Calls of active or inactive are those of the source. The calls are words filed in the database; no cut-off is given here.

This experiment relates to DNA. Kind of experiment: Binding affinity to calf thymus DNA at pH 7 by thermal denaturation assay. Type of experiment: nucleic-acid assay. The conditions noted are these: Bos taurus.

For orientation: ΔTm means the change in melting temperature against a reference sample. For the compound `O=C(CN1CCCNCCNCCCNCC1)N[C@@H](COCc1ccccc1)C(=O)O`, the shift in melting temperature (ΔTm) is 8 °C. `O=C(CN1CCCNCCNCCCNCC1)N[C@@H](Cc1ccccc1)C(=O)O`: the result was Active. Same read-out and setting: the value for `C[C@H](NC(=O)CN1CCCNCCNCCCNCC1)C(=O)O` was “Active”.
